Source: patent US8153630B2, “Kinase inhibitors” (Miikana Therapeutics, Inc., priority 2004, dated 2012)

Key:
[1] = target: T1, recombinant Aurora A (Homo sapiens, UniProt O14965); test: PanVera Z'-Lyte Aurora kinase assay; format: biochemical; conditions: Z'-Lyte Ser/Thr 1 peptide 2 μM, ATP 10 μM, 1 h
T1 construct: purchased Upstate, Lake Placid, N.Y
T1 sequence (O14965 1-403): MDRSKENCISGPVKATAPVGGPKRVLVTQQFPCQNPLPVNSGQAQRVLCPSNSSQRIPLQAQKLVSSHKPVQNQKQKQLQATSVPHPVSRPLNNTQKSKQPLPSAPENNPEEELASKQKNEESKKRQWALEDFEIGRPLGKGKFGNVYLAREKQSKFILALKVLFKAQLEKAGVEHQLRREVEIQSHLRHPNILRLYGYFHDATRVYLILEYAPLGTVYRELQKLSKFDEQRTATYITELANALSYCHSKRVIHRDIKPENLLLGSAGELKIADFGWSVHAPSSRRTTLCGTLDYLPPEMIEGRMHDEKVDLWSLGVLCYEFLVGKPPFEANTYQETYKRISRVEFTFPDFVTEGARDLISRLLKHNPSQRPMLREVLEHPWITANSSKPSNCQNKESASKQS
Description: Compounds 7-14 above were tested for their potency against recombinant Aurora A (Upstate, Lake Placid, N.Y.) using the PanVera Z'-Lyte kinase assay kit—Ser/Thr 1 peptide (Invitrogen, Carlsbad, Calif.). Assays were carried out in kinase assay buffer (50 mM HEPES, pH 7.5, 10 mM MgCl2, 5 mM EGTA, 0.05% Brij-35, 2 mM DTT). Test compounds were initially dissolved in DMSO at 100× the highest tested concentration, then serially diluted to 4× test concentrations in kinase assay buffer. Next, Aurora A (final concentration 200-500 ng/mL), Z′-Lyte Ser/Thr 1 peptide (final concentration 2 μM) and ATP (final concentration 10 μM) were added according to the manufacturer's instructions. Assays were carried out in half-area 96-well white polystyrene assay plates (Corning, Corning, N.Y.) in a final volume of 20 μL. The reaction was allowed to proceed for 1 h at room temperature in the dark, at which point the development reagent and stop reagent were added according to the manufacturer's instructions. Coumarin (Ex. 400 nm, Em. 465 nm) and fluorescein (Ex. 400 nm, Em. 565 nm) fluorescence values were measured on a SpectraFluor Plus plate reader (Tecan, Durham, N.C.). The emission ratio (coumarin/fluorescein) was determined and used to calculate the percent phosphorylation for each well. Wells containing substrate but no kinase and wells containing a phosphopeptide control were used to set 0% and 100% phosphorylation values, respectively. Typically 20-40% of the substrate was phosphorylated in wells without inhibitor. Dose-response curves of relative Aurora A activity vs. inhibitor concentration were plotted with Grafit (Erithacus Software, Horley, Surrey, UK) and used to calculate IC50 values.

[2] = test system: HCT 116 Cells; test: Aurora kinase whole cell cytotoxicity assay: Sulforhodamine B; format: cell-based; conditions: Homo sapiens, HCT116, SRB staining, 96 hours incubation
Description: Human tumour-derived cell lines, HCT116 or MCF7 (ATCC) were plated in a 96 well plate in DMEM containing 10% fetal bovine serum and 2 mM L-glutamine at a density of 500 HCT116 cells or 1,000 MCF7 cells per well and incubated at 37° C., 5% CO2, for 24 hours prior to the addition of experimental compounds. Compounds were added using the dilution series indicated to duplicate plates and the cells were incubated in media plus compound for 96 hours. An additional plate was fixed in 10% TCA at the time of the addition of compound to provide a measurement of the cell population at time zero, the time of drug addition. Following the 96 hour incubation, cells were fixed in situ by gently aspirating off the culture media and then adding 50 ul of ice cold 10% TCA per well and incubation at 4° C. for 60 minutes. The plates were washed with tap water five times and allowed to air dry for 5 minute. 50 ul of a 0.4% (w/v) Sulforhodamine B solution in 1% (v/v) acetic acid was added per well and the cells were incubated for 30 minutes at room temperature. Following staining, plates were washed four times with 1% acetic acid to remove any unbound dye and then allowed to air dry for 5 minutes. The stain was solubilized with 100 ul of 10 mM Tris pH 10.5 per well and placed on an orbital rotator for 5 minutes. The absorbance was read at 570 nm. Percentage growth was calculated using the absorbance readings from the time zero plate (Tz) and the dilution series plate […] which included a column of cells grown in media without compound as a control (C) using the formulas: [(Ti−Tz)/(C−Tz)]×100 for concentrations for which Ti>/=Tz [(Ti−Tz)/Tz]×100 for concentrations for which Ti<Tz.
Three dose response parameters were calculated for each experimental agent. Growth inhibition of 50% (GI50) was calculated from [(Ti−Tz)/(C−Tz)]×100=50, which was the drug concentration resulting in a 50% reduction in the net protein increase (as measured by SRB staining) in control cells during the drug incubation. The drug concentration resulting in total growth inhibition (TGI) was calculated from Ti=Tz. The LC50 (concentration of drug resulting in a 50% reduction in the measured protein at the end of the drug treatment as compared to that at the beginning) indicating a net loss of cells following treatment ws calculated from [(Ti−Tz)/Tz]×100=−50. Values are calculated for each of these three parameters if the level of activity was reached; however, if the effect was not reached or was exceeded, the value for that parameter is expressed as greater or less than the maximum or minimum concentration tested.

Row | IC50 [1] [µM] | Structure (SMILES) | GI50 [2] [µM]
1 | < 0.1 | Cc1cc(Nc2nc(Sc3ccc(NC(=O)C4CC4)cc3)nc(C(=O)O)c2N)n[nH]1 [Compound 8, 2-(4-Cyclopropanecarboxamidophenylsulfanyl)-5-amino-6-(5-methylpyrazol-3-ylamino)-4-pyrimidinecarboxylic acid] | 
2 | < 0.1 | CNC(=O)c1nc(Sc2ccc(NC(=O)C3CC3)cc2)nc(Nc2cc(C)[nH]n2)c1N [Compound 9, Methyl 2-(4-cyclopropanecarboxamidophenylsulfanyl)-5-amino-6-(5-methylpyrazol-3-ylamino)-4-pyrimidinecarboxamide] | 
3 | < 0.1 | CCOC(=O)c1nc(S(=O)(=O)c2ccc(NC(=O)C3CC3)cc2)nc(Nc2cc(C)[nH]n2)c1N [Compound 13, Ethyl 2-(4-cyclopropanecarboxamidophenylsulfonyl)-5-amino-6-(5-methylpyrazol-3-ylamino)-4-pyrimidinecarboxylate] | 
4 | < 0.1 | Cc1cc(Nc2nc(Sc3ccc(NC(=O)C4CC4)cc3)nc(C(=O)NCCN3CCCCC3)c2N)n[nH]1 [Compound 17, N-(2-Piperidin-1-ylethyl) 2-(4-cyclopropanecarboxamidophenylsulfanyl)-5-amino-6-(5-methylpyrazol-3-ylamino)-4-pyrimidinecarboxamide] | 0.1 to 1
5 | 0.1 to 1 | CCOC(=O)c1nc(Nc2ccc(NC(C)=O)nc2)nc(Nc2cc(C)[nH]n2)c1N [Compound 34, Ethyl 2-(6-acetylamido-3-pyridylamino)-5-amino-6-(5-methylpyrazol-3-ylamino)-4-pyrimidinecarboxylate] | 
6 | < 0.1 | CSCCOC(=O)c1nc(Sc2ccc(NC(=O)C3CC3)cc2)nc(Nc2cc(C)[nH]n2)c1N [Compound 41] | 0.1 to 1
7 | < 0.1 | Cc1cc(Nc2nc(Sc3ccc(NC(=O)C4CC4)cc3)nc(C(=O)OCCN(C)C)c2N)n[nH]1 [Compound 46, 2-Dimethylaminoethyl 2-(4-cyclopropanecarboxamidophenylsulfanyl)-5-amino-6-(5-methylpyrazol-3-ylamino)-4-pyrimidinecarboxylate] | 0.1 to 1
8 | < 0.1 | Cc1cc(Nc2nc(Sc3ccc(NC(=O)C4CC4)cc3)nc(C(=O)OC3CCN(C)CC3)c2N)n[nH]1 [Compound 47, 1-Methylpiperidin-4-yl 2-(4-cyclopropanecarboxamidophenylsulfanyl)-5-amino-6-(5-methylpyrazol-3-ylamino)-4-pyrimidinecarboxylate] | 0.1 to 1

The remaining lines, values behind:

Row | Structure (SMILES) | IC50 [1] [µM] | GI50 [2] [µM]
9 | COC(=O)c1nc(Sc2ccc(NC(=O)C3CC3)cc2)nc(Nc2cc(C)[nH]n2)c1N [Compound 7, Methyl 2-(4-cyclopropanecarboxamidophenylsulfanyl)-5-amino-6-(5-methylpyrazol-3-ylamino)-4-pyrimidinecarboxylate] | < 0.1 | 0.1 to 1
10 | Cc1cc(Nc2nc(Sc3ccc(NC(=O)C4CC4)cc3)nc(C(=O)NCCN(C)C)c2N)n[nH]1 [Compound 12, N-[2-(N,N-dimethylamino)ethyl]-2-(4-cyclopropane-carboxamidophenylsulfanyl)-5-amino-6-(5-methylpyrazol-3-ylamino)-4-pyrimidine carboxamide] | < 0.1 | 1 to 10
11 | CCOC(=O)c1nc([S+]([O-])c2ccc(NC(=O)C3CC3)cc2)nc(Nc2cc(C)[nH]n2)c1N (stereo not shown) [Compound 14, ethyl 2-(4-cyclopropane-carboxamidophenylsulfinyl)-5-amino-6-(5-methylpyrazol-3-ylamino)-4-pyrimidinecarboxylate] | < 0.1 | 
12 | Cc1cc(Nc2nc(Sc3ccc(NC(=O)C4CC4)cc3)nc(C(=O)OCCN3CCOCC3)c2N)n[nH]1 [Compound 18, 2-Morpholin-4-ylethyl 2-(4-cyclopropanecarboxamidophenylsulfanyl)-5-amino-6-(5-methylpyrazol-3-ylamino)-4-pyrimidinecarboxylate] | < 0.1 | 1 to 10
13 | Cc1cc(Nc2nc(Sc3ccc(NC(=O)C4CC4)cc3)nc(C(=O)OC3CCOCC3)c2N)n[nH]1 [Compound 19, Tetrahydro-2H-pyran-4-yl 2-(4-cyclopropanecarboxamidophenylsulfanyl)-5-amino-6-(5-methylpyrazol-3-ylamino)-4-pyrimidinecarboxylate] | < 0.1 | 0.1 to 1
14 | CCOC(=O)c1nc(Nc2ccc(NC(=O)C3CC3)cc2)nc(Nc2cc(C)[nH]n2)c1N [Compound 36, Ethyl 2-({4-[(cyclopropylcarbonyl)amino]phenyl}amino)-5-amino-6-(5-methylpyrazol-3-ylamino)-4-pyrimidinecarboxylate] | < 0.1 | 1 to 10
15 | COCCOC(=O)c1nc(Sc2ccc(NC(=O)C3CC3)cc2)nc(Nc2cc(C)[nH]n2)c1N [Compound 40, 2-Methoxyethyl 2-(4-cyclopropanecarboxamidophenylsulfanyl)-5-amino-6-(5-methylpyrazol-3-ylamino)-4-pyrimidinecarboxylate] | < 0.1 | 0.1 to 1
16 | Cc1cc(Nc2nc(Sc3ccc(NC(=O)C4CC4)cc3)nc(C(=O)OC3CCCCC3)c2N)n[nH]1 [Compound 42, Cyclohexyl 2-(4-cyclopropanecarboxamidophenylsulfanyl)-5-amino-6-(5-methylpyrazol-3-ylamino)-4-pyrimidinecarboxylate] | < 0.1 | 0.1 to 1
17 | COCCNC(=O)c1nc(Sc2ccc(NC(=O)C3CC3)cc2)nc(Nc2cc(C)[nH]n2)c1N [Compound 43, N-(2-Methoxyethyl) 2-(4-cyclopropanecarboxamidophenylsulfanyl)-5-amino-6-(5-methylpyrazol-3-ylamino)-4-pyrimidinecarboxamide] | < 0.1 | 0.1 to 1
18 | Cc1cc(Nc2nc(Sc3ccc(NC(=O)C4CC4)cc3)nc(C(=O)N3CCOCC3)c2N)n[nH]1 [Compound 44, Morpholin-4-yl 2-(4-cyclopropanecarboxamidophenylsulfanyl)-5-amino-6-(5-methylpyrazol-3-ylamino)-4-pyrimidinecarboxamide] | < 0.1 | 1 to 10
19 | Cc1cc(Nc2nc(Sc3ccc(NC(=O)C4CC4)cc3)nc(C(=O)N3CCSCC3)c2N)n[nH]1 [Compound 45, Thiomorpholin-4-yl 2-(4-cyclopropanecarboxamidophenylsulfanyl)-5-amino-6-(5-methylpyrazol-3-ylamino)-4-pyrimidinecarboxamide] | < 0.1 | 1 to 10
20 | Cc1cc(Nc2nc(Sc3ccc(NC(=O)C4CC4)cc3)nc(C(=O)Nc3ccccc3)c2N)n[nH]1 [Compound 60, N-Phenyl 2-(4-cyclopropanecarboxamidophenylsulfanyl)-5-amino-6-(5-methylpyrazol-3-ylamino)-4-pyrimidinecarboxamide] | 0.1 to 1 | 
